Assay [1] has as its system antibodies raised to this conjugate (antigen 12). The assay is described as follows: Hapten inhibition of precipitation of anti-12 sera with (β-D-gal-O(CH2)8 CONH)23 -HSA. The format is binding, rabbit. Conditions: (β-D-gal-O(CH2)8 CONH)23 -HSA as the precipitating antigen; for IC50: read-out: concentration giving 50% inhibition of precipitation.
The test system of another assay is antisera raised to 13. Nature of the assay: Hapten inhibition of precipitation between 13 and antisera raised to 13. The format is binding, rabbit. The procedure: (§1) This antigen was prepared from the hydrazide derivative of compound 2 using the acyl azide coupling method described in example XII. […] Proof of the hapten specific nature of the response comes from hapten specific inhibition of precipitation between 13 and antisera raised to 13.

The subject of assay [2] is human Lewis-a blood group substance. Nature of the assay: Goat immunization, cross-reaction of antisera with natural substance. In kind it is in vivo. As to conditions: goat immunized with the antigen. The text has this:
(§2) To further explore the extent of cross reactions between antibodies raised to the artificial Le^a antigens and human Lewis-a blood group substance and to obtain larger amounts of antisera, a goat was immunized with [Le^a -O(CH2)8 CONH]30 -BSA.

The test system of a further assay is Lewis (a-) red cells. The assay is described as follows: Agglutination of red cells by goat antisera to artificial Le^a antigen. As to conditions: goat antisera after appropriate treatment. The format is cell-based, human.
Source text: as §2

In assay [3] the test system is human blood group Lewis-(a+b-) red cells. Described as above. In kind it is cell-based. As to conditions: goat antisera after appropriate treatment.
Source text: as §2

Assay [4] deals with antibodies raised to this conjugate (antigen 12). In kind it is binding, rabbit. As to conditions: 50 μl of crude sera raised to antigen 12. From the text: (§3) For rabbits the immunization protocol was that described by Martineau^2 and for goats that of Marcus and Grollman^3. The course of the immunization was followed by quantitative precipitin tests on samples of blood withdrawn at various times. The procedures used were all standard to the field of immunology^4.

For a further assay, the system named is San Juan rabbits. As to conditions: six San Juan rabbits, antigen in Freund's complete adjuvant.
Source text: as §3

In assay [5] the test system is antiserum raised against [Le^a -O(CH2)8 CONH]30 -BSA. Nature of the assay: Maximum precipitation of anti-[Le^a -O(CH2)8 CONH]30 -BSA antiserum against test antigen. In kind it is binding, rabbit. As to conditions: as test antigen against antiserum raised to [Le^a -O(CH2)8 CONH]30 -BSA. The procedure: The above antiserum had been raised against the artificial Lewis-a antigen [Le^a -O(CH2)8 CONH]30 -BSA. The maximum precipitation against [Le^a -O(CH2)8 CONH]28 -HSA as test antigen was 277 μg of antibody per 50 μl of antiserum.

Assay [6] concerns Rabbit antisera raised to Le^a -BSA antigens. The assay is described as follows: Immunodiffusion of rabbit antisera raised to Le^a -BSA antigens. The format is binding.
The test system of another assay is rabbits. The assay is described as follows: Immunization of rabbits with 13, specificity of sera. The format is in vivo, rabbit. As to conditions: rabbits immunized with 13. The procedure:
as §1

Where [7] appears, read: at the concentration that methyl β-D-glcNAc was effective.

The record followed here is patent publication US4238473A, “Artificial oligosaccharide antigenic determinants” (priority 1975, dated 1980).

`CO[C@@H]1O[C@H](CO)[C@@H](O)[C@H](O)[C@H]1O` [methyl β-D-glucopyranoside]: the “inhibition of precipitation” value in assay [1] is “approximately no inhibition”; with antisera raised to 13 (setting [7]), “virtually no inhibition”. As to [Le^a -O(CH2)8 CONH]30 -BSA, in assay [2], the “cross-reaction of antisera with human Lewis-a blood group substance” value is “showed the expected cross-reaction”. In addition, the “agglutination by the antisera” value was “did not agglutinate” in the assay with Lewis (a-) red cells and “effectively agglutinated” in assay [3]. “(β-D-gal-O(CH2)8 CONH)24 -BSA [antigen 12]”: the “maximum amount of antibody precipitated” value in assay [4] was 396 µg. Besides, the “Antibody levels upon completion of the schedule (average)” value in the assay with San Juan rabbits amounted to 277 μg per 50 μl sera. In the case of [Le^a -O(CH2)8 CONH]28 -HSA, the maximum precipitation in assay [5] is listed as 277 μg of antibody per 50 μl of antiserum.

As for polylysine, the “line of precipitation on immunodiffusion” value in assay [6] was “No line of precipitation”.

In the case of dextran, the “line of precipitation on immunodiffusion” value in [6] is recorded as “No line of precipitation”. For `OC[C@H]1OC(O)[C@H](O)[C@@H](O)[C@H]1O` (stereo partly drawn) [galactose], the IC50 in [1] was determined as 6.6 mM.

For the compound `CO[C@H]1O[C@H](CO)[C@H](O)[C@H](O)[C@H]1O` [methyl α-D-galactopyranoside], in assay [1], the IC50 was determined as 33 mM. As to `CO[C@@H]1O[C@H](CO)[C@H](O)[C@H](O)[C@H]1O` [methyl β-D-galactopyranoside], the IC50 in assay [1] is 0.83 mM. For `CO[C@@H]1O[C@H](CO)[C@H](O)[C@H](O)[C@H]1NC(C)=O` [methyl β-D-galNAc], the “inhibition of precipitation” value in the assay with antisera raised to 13 (setting [7]) is reported as “virtually no inhibition”. With `OC[C@H]1O[C@@H](O[C@H]2[C@H](O)[C@@H](O)C(O)O[C@@H]2CO)[C@H](O)[C@@H](O)[C@H]1O` (stereo partly drawn) [lactose], in [1], the IC50 came to 70 mM. With `CO[C@@H]1O[C@H](CO)[C@@H](O)[C@H](O)[C@H]1NC(C)=O` [methyl β-D-glcNAc], the inhibition of precipitation with antisera raised to 13 (precipitation between 13 and antisera raised to 13) is recorded as 60-80%. For the compound (α-D-gal-O(CH2)8 CONH)17 -BSA, the “maximum amount of antibody precipitated” value in assay [4] came to 87 µg. With “(β-D-glcNAc-O(CH2)8 CONH)25 -BSA [antigen 13]”, the “specificity of sera from immunized rabbits” value in the assay with rabbits is reported as “high specificity for antigens containing the β-D-glcNAc hapten”.
